Experimental findings from patent publication US20220409742A1, “NUCLEIC ACID NANOPARTICLES, PHARMACEUTICAL COMPOSITION COMPRISING SAME, DRUG COMPRISING DOXORUBICIN AND PREPARATION METHOD THEREFOR” (BAI YAO ZHI DA (BEIJING) NANOBIO TECHNOLOGY CO., LTD., priority 2018, published 2022) are described below.

This data set in a line: Doxorubicin loading rate, chemical loading (paraformaldehyde covalent linkage). The format is physicochemical. As to conditions: doxorubicin molecules per nucleic acid nanoparticle carrier. The method, then: (1) Accurately weighing the doxorubicin (5.0 mg, 8.6 μmol, 40 eq.) and dissolving in the DEPC treated water (1.8 mL) and the PBS buffer solution (2.1 mL), adding 4% paraformaldehyde aqueous solution (0.4 mL) under cooling of an ice-water bath and uniformly mixing, enabling the mixed solution to be totally uniformly mixed with the RNA nanoparticles (215 nmol), and reacting for 72 hours at 4 DEG C. under a dark condition.
(2) Taking 10 μL of reaction solution and diluting for 10 times, using 50 μM of the doxorubicin aqueous solution and 310 ng/μL of the RNA nanoparticles as controls, and performing HPLC analysis according to equal volume injection. According to a peak area ratio of each component, it may be adjusted that reaction conversion is basically completed.
(3) Extracting the reaction solution by the chloroform (10 mL×3), and then adding 10 times of the anhydrous ethanol in volume, after uniformly mixing, keeping at 4 DEG C. in the dark and enabling a product to be adequately precipitated (4 hours). Centrifuging, transferring supernatant, and washing the solid product again by the ethanol, evaporating a solvent under reduced pressure and lower temperature, to obtain a loading product which is a dark red solid.
(5) Loading rate calculation:
1. preparing a known concentration of doxorubicin-PBS standard solution: 2 μM, 4 μM, 6 μM, 8 μM, and 10 μM, 100 μL each;
2. enabling the doxorubicin-loaded product to be dissolved in 100 μL of the PBS;
3. putting the standard solution and the doxorubicin-loaded product into a PCR plate, heating at 85 DEG C. for 5 min, and then cooling to the room temperature;
4. measuring an absorbance of the doxorubicin at 492 nm by using a microplate reader, drawing a standard curve (as shown in FIG. 11), and calculating the molar concentration of the doxorubicin in the loaded product;
5. measuring an absorbance of RNA at 260 nm by using a spectrophotometer, to obtain the mass concentration of the doxorubicin-loaded product contained in each sample; and
6. according to the doxorubicin molar concentration and the mass concentration of the doxorubicin-loaded product obtained by measuring, calculating a loading rate.
According to the chemical loading method (unless otherwise specified, the method is the same as that of Embodiment 5) of Embodiment 5, the above DNA nanoparticles in Embodiment 1, the RNA nanoparticles formed by the self-assembly of the R-1, R-2, R-3, R-4, R-5, R-6 and R-7 in Embodiment 2, and the DNA nanoparticles formed by the self-assembly of the D-2, D-6 and D-7 in Embodiment 4 are respectively used as doxorubicin loading carriers, doxorubicin loading rates measured are respectively as follows:
According to the chemical loading method (unless otherwise specified, the method is the same as that of Embodiment 5) of Embodiment 5, the RNA nanoparticles formed by the self-assembly of the previous R-15, R-16, R-17, R-18, R-19, R-20 and R-21 in Embodiment 11, and the DNA nanoparticles formed by the self-assembly of the D-8, D-9, D-10, D-11, D-12, D-13 and D-14 in Embodiment 12 are respectively used as doxorubicin loading carriers, doxorubicin loading rates measured are respectively as follows: […]

For “R-1: short-sequence RNA nanoparticle, strands SEQ ID NO:55-57, c/u 2′F modification (chain 1 GGAGCGUUGG; chain 2 CCUUCGCCGY; chain 3 CGGCCAUAGCCC; 2'-F C/U, chemistry not fully specified)”, the doxorubicin loading rate was determined as 3.5.
Consider “R-2: short-sequence RNA nanoparticle, strands SEQ ID NO:58-60, c/u 2′F modification (chain 1 GCAGCGUUCG; chain 2 CGUUCGCCGY; chain 3 CGGCCAUAGCGC; 2'-F C/U, chemistry not fully specified)”, for which the doxorubicin loading rate is reported as 2.4.
With “R-3: short-sequence RNA nanoparticle, strands SEQ ID NO:61-63, c/u 2′F modification (chain 1 CGAGCGUUGC; chain 2 GCUUCGCCGY; chain 3 CGGCCAUAGCCG; 2'-F C/U, chemistry not fully specified)”, the doxorubicin loading rate was found to be 4.8.
Molecule “R-4: short-sequence RNA nanoparticle, strands SEQ ID NO:64-66, c/u 2′F modification (chain 1 GGAGCGUUGG; chain 2 CCUUCGGGGY; chain 3 CCCCCAUAGCCC; 2'-F C/U, chemistry not fully specified)” gave a doxorubicin loading rate of 3.5.
The figure for “R-5: short-sequence RNA nanoparticle, strands SEQ ID NO:67-69, c/u 2′F modification (chain 1 GCAGCGUUCG; chain 2 CGUUCGGCGY; chain 3 CGCCCAUAGCGC; 2'-F C/U, chemistry not fully specified)” is 12.5; for “R-6: short-sequence RNA nanoparticle, strands SEQ ID NO:70-72, c/u 2′F modification (chain 1 GCAGCGUUCG; chain 2 CGUUCGGCCY; chain 3 GGCCCAUAGCGC; 2'-F C/U, chemistry not fully specified)” it is 2.8.

B1: D-6: conventional-sequence DNA nanoparticle, SEQ ID NO:114-116, without target head, thio modification (nucleic acid)
chain 1: CGCGCGCCCAGCAGCGTTCGGGGCGCCGC
chain 2: GCGGCGCCCCGTTCGGCCGGCAGGCGGC
chain 3: GCCGCCAGCCGGCCCATAGCGCTGGGCGCGCG
modifications: DNA, backbone and methylation of C not given here; three-strand DNA nanoparticle, phosphorothioate modification
The molecule B1 displayed a doxorubicin loading rate of 11.

B2: D-2: conventional-sequence DNA nanoparticle, SEQ ID NO:102-104, EGFRapt target head, thio modification (nucleic acid)
chain 1: CGCGCGCCCAGCAGCGTTCGCGGGCGGCGGCCTTAGTAACGTGCTTTGATGTCGATTCGACAGGAGGC
chain 2: CGCCGCCCGCGTTCGCCGCCAGCCGCC
chain 3: GGCGGCAGGCGGCCATAGCGCTGGGCGCGCG
modifications: DNA, backbone and methylation of C not given here; DNA nanoparticle with EGFR aptamer head, phosphorothioate modification
In the case of B2, the doxorubicin loading rate is listed as 14.
